These results are taken from patent US11267822B2, “BET bromodomain protein degraders with cleavable linkers” (THE REGENTS OF THE UNIVERSITY OF MICHIGAN, priority 2017, dated 2022).

The test system of experiment [1] is MDA-MB-231. Kind of experiment: Cell growth inhibition, CellTiter-Glo Luminescent Cell Viability Assay, MDA-MB-231. It counts as cell-based. The following applies: MDA-MB-231 cells, 4 days. On the procedure: (§1) Cell growth inhibitory activity of representative Compounds of the Disclosure was determined using the CellTiter-Glo® Luminescent Cell Viability Assay. Cells were seeded in 384-well white opaque cell culture plates at a density of 2,000 cells/well with serially diluted compounds and incubated at 37° C. in an atmosphere of 95% air and 5% CO2 for 4 days. Cell viability was determined using the CellTiter-Glo® Luminescent Cell Viability Assay Kit (Promega, Madison, Wis.) according to the manufacture's instruction. Briefly, a volume of CellTiter-Glo® Reagent equal to the volume of cell culture medium was added to each well, and then the plates were incubated at room temperature for 10-20 minutes. The luminescent signal was measured using a Tecan Infinite M1000 multimode microplate reader (Tecan, Morrisville, N.C.). The half maximal inhibitory concentration (IC50) in Table 3 was calculated using the GraphPad Prism 5 software (GraphPad Software, La Jolla, Calif.).

Experiment [2] deals with MOLM13. Put plainly: Cell growth inhibition, CellTiter-Glo Luminescent Cell Viability Assay, MOLM13. It counts as cell-based. The following applies: MOLM13 cells, 4 days. On the procedure: as §1
(In ATP-based viability assays light output follows the ATP content of the culture.)

Usually IC50 stands for the midpoint of a concentration-inhibition curve. Read a high IC50 as weaker potency.

Some results are limits rather than exact numbers.

As to `Cc1nnc2n1-c1sc(C#Cc3cnn(CCCC(=O)OCCCN4CCC(Nc5cccc6c5CN(C5CCC(=O)NC5=O)C6=O)CC4)c3)c(Cc3ccccc3)c1COC2` (centres unmarked) [compound 25, 3-(4-((2-(2,6-dioxopiperidin-3-yl)-1-oxoisoindolin-4-yl)amino)piperidin-1-yl)propyl 4-(4-((3-benzyl-9-methyl-4H,6H-thieno[2,3-e][1,2,4]triazolo[3,4-c][1,4]oxazepin-2-yl)ethynyl)-1H-pyrazol-1-yl)butanoate], the IC50 worked out at 7.3 nM in experiment [1] (Homo sapiens, MDA-MB-231, 96 h) and 2.4 nM in experiment [2] (Homo sapiens, MOLM-13, 96 h).

In the case of `Cc1c(C#Cc2cnn(CCCC(=O)OCCCOCCN3CCC(Nc4cccc5c4CN(C4CCC(=O)NC4=O)C5=O)CC3)c2)sc2c1C(c1ccc(Cl)cc1)=N[C@@H](C)c1nnc(C)n1-2` (stereo partly drawn) [compound 8, 3-(2-(4-((2-(2,6-dioxopiperidin-3-yl)-1-oxoisoindolin-4-yl)amino)piperidin-1-yl)ethoxy)propyl 4-(4-(((S)-4-(4-chlorophenyl)-3,6,9-trimethyl-6H-thieno[3,2-f][1,2,4]triazolo[4,3-a][1,4]diazepin-2-yl)ethynyl)-1H-pyrazol-1-yl)butanoate], the IC50 in experiment [1] (Homo sapiens, MDA-MB-231, 96 h) was 1.3 nM; in experiment [2] (Homo sapiens, MOLM-13, 96 h) it was 1.1 nM.

Regarding `Cc1nnc2n1-c1sc(C#Cc3cnn(CC(=O)OCCCCc4cccc5c4CN(C4CCC(=O)NC4=O)C5=O)c3)c(Cc3ccccc3)c1COC2` (centres unmarked) [compound 34, 4-(2-(2,6-dioxopiperidin-3-yl)-1-oxoisoindolin-4-yl)butyl 2-(4-((3-benzyl-9-methyl-4H,6H-thieno[2,3-e][1,2,4]triazolo[3,4-c][1,4]oxazepin-2-yl)ethynyl)-1H-pyrazol-1-yl)acetate], the 50% inhibitory concentration (IC50) amounted to 8.4 nM in experiment [1] (Homo sapiens, MDA-MB-231, 96 h) and 0.7 nM in experiment [2] (Homo sapiens, MOLM-13, 96 h).

As to `Cc1c(C#Cc2cnn(CCCC(=O)OCCN3CCC(Nc4cccc5c4CN(C4CCC(=O)NC4=O)C5=O)CC3)c2)sc2c1C(c1ccc(Cl)cc1)=N[C@@H](C)c1nnc(C)n1-2` (stereo partly drawn) [Cpd. No. 11, 2-(4-((2-(2,6-dioxopiperidin-3-yl)-1-oxoisoindolin-4-yl)amino)piperidin-1-yl)ethyl 4-(4-(((S)-4-(4-chlorophenyl)-3,6,9-trimethyl-6H-thieno[3,2-f][1,2,4]triazolo[4,3-a][1,4]diazepin-2-yl)ethynyl)-1H-pyrazol-1-yl)butanoate], the IC50 is 0.1 nM in experiment [1] (Homo sapiens, MDA-MB-231, 96 h) and 0.06 nM in experiment [2] (Homo sapiens, MOLM-13, 96 h).

Regarding `Cc1nnc2n1-c1sc(C#Cc3cnn(CCCC(=O)OCCOCCOCCOCCOc4cccc5c4CN(C4CCC(=O)NC4=O)C5=O)c3)c(Cc3ccccc3)c1COC2` (centres unmarked) [compound 22, 2-(2-(2-(2-((2-(2,6-dioxopiperidin-3-yl)-1-oxoisoindolin-4-yl)oxy)ethoxy)ethoxy)ethoxy)ethyl 4-(4-((3-benzyl-9-methyl-4H,6H-thieno[2,3-e][1,2,4]triazolo[3,4-c][1,4]oxazepin-2-yl)ethynyl)-1H-pyrazol-1-yl)butanoate], the IC50 in experiment [1] (Homo sapiens, MDA-MB-231, 96 h) is 185 nM; in experiment [2] (Homo sapiens, MOLM-13, 96 h) it was 5.2 nM.

As for `Cc1c(C#Cc2cnn(CCCC(=O)OCCOCCOCCOCC#Cc3cccc4c3CN(C3CCC(=O)NC3=O)C4=O)c2)sc2c1C(c1ccc(Cl)cc1)=N[C@@H](CC(=O)N1CCN(C)CC1)c1nnc(C)n1-2` (stereo partly drawn) [compound 6, 2-(2-(2-((3-(2-(2,6-dioxopiperidin-3-yl)-1-oxoisoindolin-4-yl)prop-2-yn-1-yl)oxy)ethoxy)ethoxy)ethyl 4-(4-(((S)-4-(4-chlorophenyl)-3,9-dimethyl-6-(2-(4-methylpiperazin-1-yl)-2-oxoethyl)-6H-thieno[3,2-f][1,2,4]triazolo[4,3-a][1,4]diazepin-2-yl)ethynyl)-1H-pyrazol-1-yl)butanoate], the IC50 in experiment [1] (Homo sapiens, MDA-MB-231, 96 h) worked out at 32 nM; in experiment [2] (Homo sapiens, MOLM-13, 96 h), 2.8 nM.

As for `Cc1c(C#Cc2cnn(CC(=O)OCC#Cc3cccc4c3CN(C3CCC(=O)NC3=O)C4=O)c2)sc2c1C(c1ccc(Cl)cc1)=N[C@@H](C)c1nnc(C)n1-2` (stereo partly drawn) [Cpd. No. 4, 3-(2-(2,6-dioxopiperidin-3-yl)-1-oxoisoindolin-4-yl)prop-2-yn-1-yl 2-(4-(((S)-4-(4-chlorophenyl)-3,6,9-trimethyl-6H-thieno[3,2-f][1,2,4]triazolo[4,3-a][1,4]diazepin-2-yl)ethynyl)-1H-pyrazol-1-yl)acetate], the results for the IC50 in experiment [1] and in experiment [2] were 276 nM and 17.3 nM, respectively.

`Cc1nnc2n1-c1sc(C#Cc3ccc(CCCC(=O)OCCN4CCC(Nc5cccc6c5CN(C5CCC(=O)NC5=O)C6=O)CC4)nc3)c(Cc3ccccc3)c1COC2` (centres unmarked) [compound 42, 2-(4-((2-(2,6-dioxopiperidin-3-yl)-1-oxoisoindolin-4-yl)amino)piperidin-1-yl)ethyl 4-(5-((3-benzyl-9-methyl-4H,6H-thieno[2,3-e][1,2,4]triazolo[3,4-c][1,4]oxazepin-2-yl)ethynyl)pyridin-2-yl)butanoate]: the IC50 in experiment [1] (Homo sapiens, MDA-MB-231, 96 h) was found to be 4.9 nM; in experiment [2] (Homo sapiens, MOLM-13, 96 h), 5.5 nM.

For `Cc1nnc2n1-c1sc(C#Cc3cnn(CCCOC(=O)CCc4cccc5c4CN(C4CCC(=O)NC4=O)C5=O)c3)c(Cc3ccccc3)c1COC2` (centres unmarked) [compound 17, 3-(4-((3-benzyl-9-methyl-4H,6H-thieno[2,3-e][1,2,4]triazolo[3,4-c][1,4]oxazepin-2-yl)ethynyl)-1H-pyrazol-1-yl)propyl 3-(2-(2,6-dioxopiperidin-3-yl)-1-oxoisoindolin-4-yl)propanoate], the IC50 was found to be 39 nM in experiment [1] (Homo sapiens, MDA-MB-231, 96 h) and 1.8 nM in experiment [2] (Homo sapiens, MOLM-13, 96 h).

For the molecule `Cc1nnc2n1-c1sc(C#Cc3cnn(CCOC(=O)CCCCc4cccc5c4CN(C4CCC(=O)NC4=O)C5=O)c3)c(Cc3ccccc3)c1COC2` (centres unmarked) [compound 32, 2-(4-((3-benzyl-9-methyl-4H,6H-thieno[2,3-e][1,2,4]triazolo[3,4-c][1,4]oxazepin-2-yl)ethynyl)-1H-pyrazol-1-yl)ethyl 5-(2-(2,6-dioxopiperidin-3-yl)-1-oxoisoindolin-4-yl)pentanoate], the IC50 came to 25.8 nM in experiment [1] (Homo sapiens, MDA-MB-231, 96 h) and 0.6 nM in experiment [2] (Homo sapiens, MOLM-13, 96 h).

For the molecule `Cc1nnc2n1-c1sc(C#Cc3ccn(CCC(=O)OCCCCc4cccc5c4CN(C4CCC(=O)NC4=O)C5=O)n3)c(Cc3ccccc3)c1COC2` (centres unmarked) [compound 29, 4-(2-(2,6-dioxopiperidin-3-yl)-1-oxoisoindolin-4-yl)butyl 3-(3-((3-benzyl-9-methyl-4H,6H-thieno[2,3-e][1,2,4]triazolo[3,4-c][1,4]oxazepin-2-yl)ethynyl)-1H-pyrazol-1-yl)propanoate], the IC50 in experiment [1] (Homo sapiens, MDA-MB-231, 96 h) was 9.8 nM; in experiment [2] (Homo sapiens, MOLM-13, 96 h), 0.3 nM.

On to `Cc1nnc2n1-c1sc(C#Cc3cnn(CCCC(=O)OCC#Cc4cccc5c4CN(C4CCC(=O)NC4=O)C5=O)c3)c(Cc3ccccc3)c1COC2` (centres unmarked) [compound 41, 3-(2-(2,6-dioxopiperidin-3-yl)-1-oxoisoindolin-4-yl)prop-2-yn-1-yl 4-(4-((3-benzyl-9-methyl-4H,6H-thieno[2,3-e][1,2,4]triazolo[3,4-c][1,4]oxazepin-2-yl)ethynyl)-1H-pyrazol-1-yl)butanoate], for which the IC50 in experiment [1] (Homo sapiens, MDA-MB-231, 96 h) amounted to 1.2 nM; in experiment [2] (Homo sapiens, MOLM-13, 96 h), 3.8 nM.

For the molecule `Cc1nnc2n1-c1sc(C#Cc3cnn(CC(=O)OCCCc4cccc5c4CN(C4CCC(=O)NC4=O)C5=O)c3)c(Cc3ccccc3)c1COC2` (centres unmarked) [compound 38, 3-(2-(2,6-dioxopiperidin-3-yl)-1-oxoisoindolin-4-yl)propyl 2-(4-((3-benzyl-9-methyl-4H,6H-thieno[2,3-e][1,2,4]triazolo[3,4-c][1,4]oxazepin-2-yl)ethynyl)-1H-pyrazol-1-yl)acetate], the IC50 was greater than 100 nM in experiment [1] (Homo sapiens, MDA-MB-231, 96 h) and 22 nM in experiment [2] (Homo sapiens, MOLM-13, 96 h).

Regarding `Cc1c(C#Cc2cnn(CCCC(=O)OCCCOCCN3CCC(Nc4cccc5c4CN(C4CCC(=O)NC4=O)C5=O)CC3)c2)sc2c1C(c1ccc(Cl)cc1)=N[C@@H](CC(=O)N1CCN(C)CC1)c1nnc(C)n1-2` (stereo partly drawn) [compound 7, 3-(2-(4-((2-(2,6-dioxopiperidin-3-yl)-1-oxoisoindolin-4-yl)amino)piperidin-1-yl)ethoxy)propyl 4-(4-(((S)-4-(4-chlorophenyl)-3,9-dimethyl-6-(2-(4-methylpiperazin-1-yl)-2-oxoethyl)-6H-thieno[3,2-f][1,2,4]triazolo[4,3-a][1,4]diazepin-2-yl)ethynyl)-1H-pyrazol-1-yl)butanoate], the IC50 was determined as 4.5 nM in experiment [1] (Homo sapiens, MDA-MB-231, 96 h) and 9.6 nM in experiment [2] (Homo sapiens, MOLM-13, 96 h).

In the case of `Cc1c(C#Cc2cnn(CCCC(=O)OCCCN3CCC(Nc4cccc5c4CN(C4CCC(=O)NC4=O)C5=O)CC3)c2)sc2c1C(c1ccc(Cl)cc1)=N[C@@H](CC(=O)N1CCN(C)CC1)c1nnc(C)n1-2` (stereo partly drawn) [Cpd. No. 1, 3-(4-((2-(2,6-dioxopiperidin-3-yl)-1-oxoisoindolin-4-yl)amino)piperidin-1-yl)propyl 4-(4-(((S)-4-(4-chlorophenyl)-3,9-dimethyl-6-(2-(4-methylpiperazin-1-yl)-2-oxoethyl)-6H-thieno[3,2-f][1,2,4]triazolo[4,3-a][1,4]diazepin-2-yl)ethynyl)-1H-pyrazol-1-yl)butanoate], the half-maximal inhibitory concentration (IC50) in experiment [1] (Homo sapiens, MDA-MB-231, 96 h) stood at 2.5 nM; in experiment [2] (Homo sapiens, MOLM-13, 96 h), 1.1 nM.

As for `Cc1nnc2n1-c1sc(C#Cc3ccn(CCC(=O)OCCCNc4cccc5c4CN(C4CCC(=O)NC4=O)C5=O)n3)c(Cc3ccccc3)c1COC2` (centres unmarked) [compound 30, 3-((2-(2,6-dioxopiperidin-3-yl)-1-oxoisoindolin-4-yl)amino)propyl 3-(3-((3-benzyl-9-methyl-4H,6H-thieno[2,3-e][1,2,4]triazolo[3,4-c][1,4]oxazepin-2-yl)ethynyl)-1H-pyrazol-1-yl)propanoate], the IC50 in experiment [1] (Homo sapiens, MDA-MB-231, 96 h) was 148 nM; in experiment [2] (Homo sapiens, MOLM-13, 96 h), 0.6 nM.
